Several values for one entry are separate records, joined by “and”; a condition that tells them apart may be missing. Identical values can stand only once.
Test: wn = mass fraction of the nth substance listed
Details: Liquid, Pycnometric method, w2 = 0.4981

FC(F)C(F)(F)F [pentafluoroethane] + FCF
Details | mass density
277.15 K, 11982 kPa | 1205.5 kg/m3
278.15 K, 12826 kPa | 1205.4 kg/m3
279.15 K, 13669 kPa | 1205.2 kg/m3
280.15 K, 14512 kPa | 1205.1 kg/m3
281.15 K, 15355 kPa | 1204.9 kg/m3
282.15 K, 16198 kPa | 1204.8 kg/m3
283.15 K, 17040 kPa | 1204.6 kg/m3
284.15 K, 17881 kPa | 1204.5 kg/m3
285.15 K, 18722 kPa | 1204.3 kg/m3
286.15 K, 19563 kPa | 1204.2 kg/m3
287.15 K, 20403 kPa | 1204 kg/m3
288.15 K, 21239 kPa | 1203.8 kg/m3
289.15 K, 22077 kPa | 1203.7 kg/m3
291.15 K, 23750 kPa | 1203.4 kg/m3
292.15 K, 24585 kPa | 1203.2 kg/m3
293.15 K, 25420 kPa | 1203 kg/m3
294.15 K, 26254 kPa | 1202.9 kg/m3
295.15 K, 27085 kPa | 1202.7 kg/m3
296.15 K, 27917 kPa | 1202.5 kg/m3
297.15 K, 8118 kPa | 1113.5 kg/m3
297.15 K, 28747 kPa | 1202.3 kg/m3
298.15 K, 29575 kPa | 1202.2 kg/m3
299.15 K, 9422 kPa | 1113.3 kg/m3
300.15 K, 10072 kPa | 1113.2 kg/m3
300.15 K, 10089 kPa | 1113.1 kg/m3
301.15 K, 10723 kPa | 1113.1 kg/m3
301.15 K, 10737 kPa | 1113 kg/m3
302.15 K, 11374 kPa | 1113 kg/m3
302.15 K, 11385 kPa | 1112.9 kg/m3
303.15 K, 12024 kPa | 1112.9 kg/m3
303.15 K, 12032 kPa | 1112.8 kg/m3
304.15 K, 12672 kPa | 1112.8 kg/m3
304.15 K, 12680 kPa | 1112.7 kg/m3
305.15 K, 13320 kPa | 1112.6 kg/m3
305.15 K, 13327 kPa | 1112.5 kg/m3
306.15 K, 13970 kPa | 1112.5 kg/m3
306.15 K, 13973 kPa | 1112.4 kg/m3
307.15 K, 14620 kPa | 1112.4 kg/m3 and 1112.3 kg/m3
308.15 K, 15268 kPa | 1112.3 kg/m3 and 1112.2 kg/m3
309.15 K, 15915 kPa | 1112.1 kg/m3
309.15 K, 15917 kPa | 1112.1 kg/m3
310.15 K, 16562 kPa | 1111.9 kg/m3
310.15 K, 16564 kPa | 1112 kg/m3
311.15 K, 17208 kPa | 1111.8 kg/m3
311.15 K, 17212 kPa | 1111.9 kg/m3
312.15 K, 17853 kPa | 1111.7 kg/m3
312.15 K, 17859 kPa | 1111.7 kg/m3
313.15 K, 18499 kPa | 1111.6 kg/m3
313.15 K, 18506 kPa | 1111.6 kg/m3
314.15 K, 19144 kPa | 1111.4 kg/m3
314.15 K, 19153 kPa | 1111.5 kg/m3
315.15 K, 19788 kPa | 1111.3 kg/m3
315.15 K, 19798 kPa | 1111.3 kg/m3
316.15 K, 20432 kPa | 1111.2 kg/m3
316.15 K, 20443 kPa | 1111.2 kg/m3
317.15 K, 21075 kPa | 1111 kg/m3
317.15 K, 21088 kPa | 1111.1 kg/m3
318.15 K, 21719 kPa | 1110.9 kg/m3
318.15 K, 21733 kPa | 1110.9 kg/m3
319.15 K, 22362 kPa | 1110.7 kg/m3
319.15 K, 22377 kPa | 1110.8 kg/m3
320.15 K, 23005 kPa | 1110.6 kg/m3
320.15 K, 23021 kPa | 1110.7 kg/m3
321.15 K, 23648 kPa | 1110.5 kg/m3
321.15 K, 23665 kPa | 1110.5 kg/m3
322.15 K, 24289 kPa | 1110.3 kg/m3
322.15 K, 24307 kPa | 1110.4 kg/m3
323.15 K, 24930 kPa | 1110.2 kg/m3
323.15 K, 24949 kPa | 1110.3 kg/m3
324.15 K, 25571 kPa | 1110 kg/m3
324.15 K, 25590 kPa | 1110.1 kg/m3
325.15 K, 26210 kPa | 1109.9 kg/m3
325.15 K, 26231 kPa | 1110 kg/m3
326.15 K, 26850 kPa | 1109.8 kg/m3
326.15 K, 26871 kPa | 1109.8 kg/m3
327.15 K, 27488 kPa | 1109.6 kg/m3
327.15 K, 27511 kPa | 1109.7 kg/m3
328.15 K, 28127 kPa | 1109.4 kg/m3
328.15 K, 28150 kPa | 1109.5 kg/m3
329.15 K, 5865 kPa | 921.2 kg/m3
329.15 K, 5904 kPa | 921.4 kg/m3
329.15 K, 28764 kPa | 1109.3 kg/m3
329.15 K, 28790 kPa | 1109.4 kg/m3
330.15 K, 6231 kPa | 921.1 kg/m3
330.15 K, 6255 kPa | 921.2 kg/m3
330.15 K, 6269 kPa | 921.3 kg/m3
330.15 K, 29402 kPa | 1109.1 kg/m3
330.15 K, 29426 kPa | 1109.2 kg/m3
331.15 K, 6598 kPa | 921 kg/m3
331.15 K, 6620 kPa | 921.1 kg/m3
331.15 K, 6635 kPa | 921.2 kg/m3
331.15 K, 30065 kPa | 1109.1 kg/m3
332.15 K, 6965 kPa | 921 kg/m3
332.15 K, 6987 kPa | 921 kg/m3
